These results are taken from patent US20190038611A1, “Novel CYP34A-Specific Inhibitors and Methods of Using Same” (THE REGENTS OF THE UNIVERSITY OF CALIFORNIA, priority 2015, published 2019).

Structures are written as SMILES. “And” between values parts separate entries of the source, which are not always exact repeats. Equal entries are not always repeated. Where two headings read alike, the source gives them in different places.

Data set [1] has as its target T1, CYP3A4 (Homo sapiens, UniProt P08684). The data set can be described thus: Kinetics of ligand binding to CYP3A4 (stopped flow). The following applies: for kfast (rate constant for the fast phase of the binding reaction): saturating ligand concentrations, room temperature, 2 μM CYP3A4. How it is done:
Kinetics of ligand binding to CYP3A4 was monitored at room temperature in 50 mM phosphate, pH 7.4, in a SX.18MV stopped flow apparatus (Applied Photophysics,
UK) after mixing 2 μM CYP3A4 with various concentrations of ligands. […] Kinetic data were analyzed using the program IgorPro (WaveMetrics, Inc).

The target of data set [2] is T1, CYP3A4. Description: Spectral binding titrations (equilibrium titration of CYP3A4, spectral dissociation constant). More on the design: 4-histidine tag (C); made in house; host or cells: E. coli. How it is done:
Left insets depict difference spectra between the ligand-free and inhibitor-bound forms. Right insets are plots of the absorbance change versus inhibitor concentration, based on which the Kd values were calculated.

Data set [3] concerns the target T1, CYP3A4. Description: Thermal denaturation (ligand-dependent changes in CYP3A4 melting temperature). Type of data set: binding. More on the design: 4-histidine tag (C); made in house; host or cells: E. coli.
Description: (§1) Thermal denaturation experiments were conducted as previously described (Sevrioukova and Poulos, 2013 J. Med. Chem. 56: 3733-41) to compare ligand-dependent changes in CYP3A4 stability. The inhibitory potency of the investigated compounds on the 7-benzyloxy-4-(trifluoromethyl)coumarin (BFC) O-debenzylation activity of CYP3A4 was evaluated fluorometrically in a reconstituted system with rat cytochrome P450 reductase (CPR). The reaction was carried out at room temperature in 100 mM phosphate buffer, pH 7.4, containing catalase and superoxide dismutase (2 Units/ml each). A mixture of 1 μM CYP3A4 and 1 μM CPR was preincubated for 1 hour at room temperature and diluted by 20-fold with the assay buffer immediately before measurements. BFC (50 μM) and various concentrations of analogs were added to the protein mixture 2 minutes prior to the reaction initiation with 100 μM NADPH. Formation of 7-hydroxy-4-trifluoromethylcoumarin was followed in a Hitachi F100 fluorometer using λex=430 nm and λem=500 nm. IC50 values were derived from the [% activity] vs. [inhibitor] plots.
For data set [4], the target named is T1, CYP3A4. Description: 442 nm peak in the absorbance spectrum of ligand-bound ferrous CYP3A4.
In data set [5] the target is T1, CYP3A4. The data set can be described thus: Inhibition of BFC O-debenzylation activity of CYP3A4 in a reconstituted system with rat cytochrome P450 reductase.
Description: as §1
Data set [6] deals with T1, CYP3A4.
Description: as §1
Data set [7] has as its target T1, CYP3A4. This is another data set of the same source.
The mark [8] stands for this setting: 50 mM phosphate pH 7.4, 20% glycerol, 1 mM dithiothreitol, single site, read-out: Ks (spectral dissociation constant).
Setting [9] is: read-out: IC50 (concentration required for half-maximal inactivation of recombinant CYP3A4), BFC 50 μM, 100 μM NADPH, room temperature, pH 7.4.

T1 sequence (P08684 with tags, fused parts or gaps): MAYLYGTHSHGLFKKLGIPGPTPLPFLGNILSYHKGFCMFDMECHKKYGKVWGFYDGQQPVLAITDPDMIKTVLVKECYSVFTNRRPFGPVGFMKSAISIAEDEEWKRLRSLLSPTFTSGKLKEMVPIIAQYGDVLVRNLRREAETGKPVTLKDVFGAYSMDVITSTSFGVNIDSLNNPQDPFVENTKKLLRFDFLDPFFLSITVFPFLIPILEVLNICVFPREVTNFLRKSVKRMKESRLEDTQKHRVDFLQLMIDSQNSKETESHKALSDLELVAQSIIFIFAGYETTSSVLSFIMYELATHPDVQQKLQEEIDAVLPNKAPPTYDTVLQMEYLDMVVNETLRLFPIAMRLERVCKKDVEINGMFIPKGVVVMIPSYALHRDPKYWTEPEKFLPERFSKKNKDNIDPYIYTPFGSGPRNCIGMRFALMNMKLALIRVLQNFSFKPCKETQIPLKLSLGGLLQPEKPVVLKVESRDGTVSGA

Consider `NCCc1ccccn1` [aminoethylpyridine, reference compound], for which, on CYP3A4 [1], the “kfast (rate constant for the fast phase of the binding reaction)” value (“kfast” below) is 0.6 ± 0.1 s⁻¹. The Kd at CYP3A4 [2] (setting [8]) turned out to be 2500 ± 200 µM. Further, the “ΔTm (ligand-dependent changes in the melting temperature of CYP3A4)” value on CYP3A4 [3] was −0.1 °C. In addition, the “442 nm absorption of the ferrous ligand-bound form of CYP3A4” value on CYP3A4 [4] is listed as “undetectable”. For the same molecule, the IC50 at CYP3A4 [5] (setting [9]) stood at 5000 ± 600 µM.

With `NCCCCCC(=O)NCc1cccnc1` [Compound 5], on CYP3A4 [1], the “rate constants of monophasic binding reaction” value was 0.5 to 0.8 s⁻¹. Also, the results for the IC50 against CYP3A4 [6] and on CYP3A4 [5] (setting [9]) were 1000 to 4000 µM and 1000 ± 150 µM, respectively. Further, on CYP3A4 [7], the “442 nm absorption of the ferrous ligand-bound form of CYP3A4” value was “undetectable”. Besides, the Kd on CYP3A4 [2] (two binding sites, read-out: KS, second of two binding sites) came to 4400 µM; on CYP3A4 [2] (values derived from the two site saturation fit to a titration curve, two binding sites, read-out: Ks (spectral dissociation constant), two site saturation fit), 10 µM. Also, at CYP3A4 [3], the “ΔTm (ligand-dependent changes in the melting temperature of CYP3A4)” value was −0.2 °C.

For `CC(C)(C)OC(=O)N[C@H](CSCCC(=O)NCc1cccnc1)Cc1ccccc1` [Compound 15a], the “kfast” value at CYP3A4 [1] is 1.7 s⁻¹ and 1.7 ± 0.2 s⁻¹. Besides, on CYP3A4 [2] (setting [8]), the Kd came out at 0.9 ± 0.1 µM. Moreover, the “ΔTm (ligand-dependent changes in the melting temperature of CYP3A4)” value at CYP3A4 [3] is −1 ± 0.2 °C. Also, the “442 nm absorption of the ferrous ligand-bound form of CYP3A4” value at CYP3A4 [4] was “pronounced”. Also, the IC50 at CYP3A4 [5] (setting [9]) is 0.5 µM and 0.52 µM.

Regarding `c1ccncc1` [pyridine, reference compound], at CYP3A4 [1], the “kfast” value worked out at 0.5 ± 0.1 s⁻¹. For the same molecule, at CYP3A4 [2] (setting [8]), the Kd stood at 4500 ± 400 µM. Further, the “ΔTm (ligand-dependent changes in the melting temperature of CYP3A4)” value on CYP3A4 [3] was 0 °C. For the same molecule, the “442 nm absorption of the ferrous ligand-bound form of CYP3A4” value at CYP3A4 [4] is listed as “undetectable”. Besides, the IC50 at CYP3A4 [5] (IC50 (concentration required for half-maximal inactivation of recombinant CYP3A4), BFC 50 μM, 100 μM NADPH, room temperature, pH 7.4) was 4000 ± 500 µM; against CYP3A4 [5] (IC50 on the BFC debenzylation activity of CYP3A4, one range given for pyridine, aminoethylpyridine and 5 together), 1000 to 4000 µM.

In the case of `CC(C)(C)OC(=O)N[C@H](CN[C@@H](Cc1ccccc1)C(=O)NCCc1cccnc1)Cc1ccccc1` [Compound 01ERS089, N-BOC-Trp-S-N-Ph-Cys-CONH-Et-Pyr], the Kd on CYP3A4 [2] (calculated from plots of absorbance change versus inhibitor concentration (FIG. 37), read-out: Kd (binding affinity to CYP3A4)) was 0.13 µM. In addition, the IC50 on CYP3A4 [5] is 0.39 µM.

On to `CC(C)(C)OC(=O)NCCCCCC(=O)NCc1cccnc1` [Compound 4], for which the “kfast” value at CYP3A4 [1] was 20 s⁻¹ and 20 ± 2 s⁻¹. The Kd on CYP3A4 [2] (setting [8]) amounted to 105 ± 10 µM. At CYP3A4 [3], the “ΔTm (ligand-dependent changes in the melting temperature of CYP3A4)” value is −0.2 °C. For the same molecule, the “442 nm absorption of the ferrous ligand-bound form of CYP3A4” value on CYP3A4 [4] is “considerably smaller”. The IC50 on CYP3A4 [5] (setting [9]) was found to be 75 µM.

`CC(C)(C)OC(=O)N[C@H](CSCCC(=O)NCc1cccnc1)Cc1c[nH]c2ccccc12` [Compound 15b]: the “kfast” value at CYP3A4 [1] came to 8.0 ± 1.5 s⁻¹. Also, the Kd on CYP3A4 [2] (setting [8]) was determined as 0.5 ± 0.1 µM. Moreover, on CYP3A4 [3], the “change of CYP3A4 Tm / thermal stability upon complex formation” value is “slightly increased” and the “ΔTm (ligand-dependent changes in the melting temperature of CYP3A4)” value is 0.2 °C. Also, the “442 nm absorption of the ferrous ligand-bound form of CYP3A4” value at CYP3A4 [4] is given as “pronounced”. Moreover, the IC50 on CYP3A4 [5] (setting [9]) is 0.2 µM and 0.21 µM.

Consider `CC(C)(C)OC(=O)N[C@H](CSCCC(=O)NCc1cccnc1)CC1CCCCC1` [Compound 11], for which the “kfast” value on CYP3A4 [1] was found to be 4.0 ± 0.2 s⁻¹. Further, the Kd on CYP3A4 [2] (setting [8]) came to 10 ± 1 µM. For the same molecule, at CYP3A4 [3], the “ΔTm (ligand-dependent changes in the melting temperature of CYP3A4)” value is −2 ± 0.4 °C. For the same molecule, the “442 nm absorption of the ferrous ligand-bound form of CYP3A4” value on CYP3A4 [4] is given as “considerably smaller”. Besides, the IC50 at CYP3A4 [5] (setting [9]) is 30 µM.
